The numbers were not newly measured in patent publication US9090495B2, “Slow release tablet composition for treating industrial water systems” (AMSA, Inc., priority 2009, dated 2015), which cites them from elsewhere.

The structures appear in SMILES notation.

For data set [1] the following is noted: alkaline pH, such as pH~9, industrial water system conditions.
The conditions of data set [2]: typical cooling tower system; composition of U.S. Pat. No. 4,816,061.

Take `N#CC(Br)(Br)C(N)=O` [DBNPA, 2,2-dibromo-3-nitrilopropionamide]: the Time to degradation result in data set [1] was “a few minutes”.
On to `CCCCCCCCCCSCCN` [n-decylthioethylamine], for which the “Duration of effectiveness of a typical dose” value in data set [2] was 1 to 1.5 days.
